*1 amine or outer side, *2 acyl side, *3 side chain or, on linkers, in order; H or OH if unused. Where a SMILES comes first, the peptide text is derived from it. Bridges are numbered along the chain shown (N, C = ends). [ ]: non-standard residue; d: D form. The star is where a group is joined. Orn(4R-OH,5R-OCH2CH2NMe3+) = C[N+](C)(C)CCO[C@@H](N[*:3])[C@H](O)C[C@H](N[*:1])C(=O)[*:2]; hTyr(3S-OH,4S-OH) = N[C@H](C(=O)O)[C@H](O)[C@@H](O)c1ccc(O)cc1; X1 = CC(O)CCCOc1ccc(-c2ccc(-c3ccc(C(=O)*)cc3)cc2)cc1; X2 = CCCC(O)COc1ccc(-c2ccc(-c3ccc(C(=O)*)cc3)cc2)cc1; X3 = CCC(O)CCOc1ccc(-c2ccc(-c3ccc(C(=O)*)cc3)cc2)cc1; Pro(3S-OH,4S-Me) = C[C@H]1CN[C@H](C(=O)O)[C@H]1O; X4 = O=C(c1ccc(-c2ccc(-c3ccc(O)cc3)cc2)cc1)*; Hyp = O=C(O)[C@@H]1C[C@@H](O)CN1
Experiments:
[1] = Monkey metabolite profiling (LC-MS with radioactivity detection); format: in vivo, cynomolgus monkeys; conditions: cynomolgus monkey, in vivo, iv, 10 mg/kg
Experimental: (ii) Monkey study design. The study used 3 male cynomolgus monkeys, each administered a single 10 mg/kg IV dose of [^14C]-rezafungin (with a target radioactivity of 100 μCi/kg of [^14C]-rezafungin) by infusion into a saphenous vein over 20 min. Whole blood and plasma samples were collected at each of the following time points: predose, 0.5, 2, 4, 8, 24, 48, 96 120, 144, 168, 240, 480, 720, and 1440 h postdose. Urine, feces, and cage washings were collected at predose (urine/feces only) and daily 24-h collections for 30 days.
(§1) (iv) Metabolite profiling. The metabolite identification and urine profiling were achieved using pooled samples by equal percent weight of samples (urine, bile, feces) or by equal volume (50 μl) aliquots of each plasma sample across all time points/intervals. The urine, plasma, bile, and fecal samples were analyzed using liquid chromatography tandem mass spectrometry (LC-MS) coupled with a radioactivity flow-through detector for metabolite profiling and identification. Tandem MS experiments were performed, and the structures of the metabolites were proposed based on their MS/MS spectra. The proposed structures were confirmed by comparison of the retention times and product ion spectra with the authentic reference standards when possible.

[2] = Rat metabolite profiling (LC-MS with radioactivity detection); format: in vivo, Sprague-Dawley rats; conditions: rat, in vivo, iv, 15 mg/kg
Experimental: (i) Rat study design. The study used 12 male Sprague-Dawley rats, each administered a bolus IV injection into the tail vein over approximately 3–4 min of 15 mg/kg of rezafungin (with a target radioactivity of 200 μCi/kg of [^14C]-rezafungin). Three of the rats were bile duct cannulated. Whole blood/plasma, urine, feces/bile, and cage washings were collected at periodic intervals from noncannulated rats until euthanization at 336 h postdose and from bile duct cannulated rats until euthanization at 120 h postdose as that was the duration that the patency of bile duct cannulae could be maintained. Carcasses were collected at the time of euthanization. All samples were analyzed for drug-derived radioactivity by liquid scintillation counting.
as §1

[3] = cited from earlier work
Description: Biliary excretion has been observed for caspofungin([17]) and anidulafungin([18]). In the case of anidulafungin, although uncommon, passive diffusion (up to 10% of dosed fraction) was reported for anidulafungin, with which rezafungin ...

Row | Molecule | Share of total plasma radioactivity exposure [1] | Share of total recovered radioactivity in urine [1] | Share of total plasma radioactivity exposure [2] | Share of total recovered radioactivity in urine [2] | Share of total recovered radioactivity in feces [1] | Passive diffusion, dosed fraction [3]
1 | CCCC(O)COc1ccc(-c2ccc(-c3ccc(C(=O)N[C@H]4C[C@@H](O)[C@@H](OCC[N+](C)(C)C)NC(=O)[C@@H]5[C@@H](O)[C@@H](C)CN5C(=O)[C@H]([C@@H](C)O)NC(=O)[C@H]([C@H](O)[C@@H](O)c5ccc(O)cc5)NC(=O)[C@@H]5C[C@@H](O)CN5C(=O)[C@H]([C@@H](C)O)NC4=O)cc3)cc2)cc1 (stereo partly drawn) [2’-hydroxylpentyl rezafungin] (X2-[Orn(4R-OH,5R-OCH2CH2NMe3+)]T[Hyp][hTyr(3S-OH,4S-OH)]T[Pro(3S-OH,4S-Me)]; lactam 1-C) | 3.0% | 25% | ~11% | 7.8% | – | –
2 | CCC(O)CCOc1ccc(-c2ccc(-c3ccc(C(=O)N[C@H]4C[C@@H](O)[C@@H](OCC[N+](C)(C)C)NC(=O)[C@@H]5[C@@H](O)[C@@H](C)CN5C(=O)[C@H]([C@@H](C)O)NC(=O)[C@H]([C@H](O)[C@@H](O)c5ccc(O)cc5)NC(=O)[C@@H]5C[C@@H](O)CN5C(=O)[C@H]([C@@H](C)O)NC4=O)cc3)cc2)cc1 (stereo partly drawn) [3′-hydroxylpentyl rezafungin] (X3-[Orn(4R-OH,5R-OCH2CH2NMe3+)]T[Hyp][hTyr(3S-OH,4S-OH)]T[Pro(3S-OH,4S-Me)]; lactam 1-C) | 6.3% | 12% | – | 1.9% | – | –
3 | CC(O)CCCOc1ccc(-c2ccc(-c3ccc(C(=O)N[C@H]4C[C@@H](O)[C@@H](OCC[N+](C)(C)C)NC(=O)[C@@H]5[C@@H](O)[C@@H](C)CN5C(=O)[C@H]([C@@H](C)O)NC(=O)[C@H]([C@H](O)[C@@H](O)c5ccc(O)cc5)NC(=O)[C@@H]5C[C@@H](O)CN5C(=O)[C@H]([C@@H](C)O)NC4=O)cc3)cc2)cc1 (stereo partly drawn) [4’-hydroxylpentyl rezafungin] (X1-[Orn(4R-OH,5R-OCH2CH2NMe3+)]T[Hyp][hTyr(3S-OH,4S-OH)]T[Pro(3S-OH,4S-Me)]; lactam 1-C) | 8.3% | 42% | about 33% | 62% | – | –
4 | C[C@@H](O)[C@@H]1NC(=O)[C@H]([C@H](O)[C@@H](O)c2ccc(O)cc2)NC(=O)[C@@H]2C[C@@H](O)CN2C(=O)[C@H]([C@@H](C)O)NC(=O)[C@@H](NC(=O)c2ccc(-c3ccc(-c4ccc(O)cc4)cc3)cc2)C[C@@H](O)[C@@H](OCC[N+](C)(C)C)NC(=O)[C@@H]2[C@@H](O)[C@@H](C)CN2C1=O [despentyl-rezafungin] (X4-[Orn(4R-OH,5R-OCH2CH2NMe3+)]T[Hyp][hTyr(3S-OH,4S-OH)]T[Pro(3S-OH,4S-Me)]; lactam 1-C) | – | 22% | – | 28% | 25% | –
5 | anidulafungin | – | – | – | – | – | up to 10 % of dosed fraction

Source: publication PMC8765310, “Metabolism, Excretion, and Mass Balance of [^14C]-Rezafungin in Animals and Humans” (Antimicrobial Agents and Chemotherapy, 2022)
